According to patent US20130172294A1, “Treatment with VB-201” (Vascular Biogenics Ltd., priority 2010, published 2013):

Experiment: Effect of food and capsule coating on single-dose pharmacokinetics (Example 3)
Assay type: in vivo, human
Experimental: Determination of VB-201 concentrations in plasma was performed using an HPLC-MS/MS (high performance liquid chromatography with tandem mass spectrometric detection) assay. Calibration was for a range of from 5 to 500 ng/ml for low doses and from 50 to 5000 ng/ml for high doses. Pharmacokinetic parameters were estimated by using a non-compartmental method, except for the AUC (area under curve), which was determined using a (log-) trapezoidal rule as the area above the previous trough level. All calculations were made using PKWizard (developed by Russell Barbare and Dr. […] was validated against WinNonlin (Pharsight Corp.), which is an FDA-recognized validated program. Pharmacokinetic parameters were calculated by the program according to standard methods used in the art. Calculation of the pharmacokinetic characteristics was based on the actual blood sampling time (in hours), with predose times set to zero. Concentrations below the LLOQ (lower limit of quantification; 4.974 ng/ml) were assumed to be zero. The effects of food on the pharmacokinetics of enteric coated and non-coated VB-201 capsules were investigated in a double-blind, placebo-controlled study in healthy subjects. Cohorts of six subjects each received a single dose of 10 mg, 2×10 mg or 20 mg VB-201 in the morning. […] Subjects were randomly assigned to receive the drug when fed (i.e., following completion of a standardized high fat meal) or when fasting (i.e., fasting for at least 10 hours). […] Subjects then underwent an additional 8 day washout period, after which subjects underwent a second administration. Subjects who received the first administration when fasting, received the second administration when fed, and subjects who received the first administration when fed, received the second administration when fasting. Following the second administration, blood samples were taken at the same times post-dose as previously. Concentration-time curves were constructed for time periods of up to 144 hours. Pharmacokinetic parameters were calculated based on data for the first 24 hours and for the whole 144 hours. […] Nevertheless, parameters were also calculated from data covering the first 24 hours in order to compare parameters with previous studies. Statistical comparisons of doses, coated vs. non-coated capsules, feeding vs. fasting and coating-feeding interactions were performed using a mixed model ANOVA in an SAS 8.02 software package (SAS Institute, Cary, N.C.) using PROC MIXED

AUC (0-infinity, from 24) (1 × 20 mg non-coated fasting): 16958 ng·h/mL
AUC (0-infinity, from 144) (1 × 20 mg non-coated fasting): 29478 ng·h/mL
AUC(0-24) (1 × 20 mg non-coated fasting): 10013 ng·h/mL
AUC(0-144) (1 × 20 mg non-coated fasting): 26650 ng·h/mL
AUMC (0-24) (1 × 20 mg non-coated fasting): 122207 hours^2*ng/ml
AUMC (0-infinity) (1 × 20 mg non-coated fasting): 1763607 hours^2*ng/ml
Cl/F (0-24) (1 × 20 mg non-coated fasting): 1.301 L/h
Cl/F (from 144) (1 × 20 mg non-coated fasting): 0.702 L/h
Cmax (1 × 20 mg non-coated fasting): 660.4 ng/mL
Ke (from 24) (1 × 20 mg non-coated fasting): 0.0486 h⁻¹
Ke (from 144) (1 × 20 mg non-coated fasting): 0.0166 h⁻¹
MTT (0-24) (1 × 20 mg non-coated fasting): 12.0 h
MTT (from 144) (1 × 20 mg non-coated fasting): 61.0 h
T1/2 (from 24) (1 × 20 mg non-coated fasting): 14.6 h
T1/2 (from 144) (1 × 20 mg non-coated fasting): 43.5 h
Tmax (1 × 20 mg non-coated fasting): 8.33 h
AUC (0-infinity, from 24) (1 × 20 mg non-coated fed): 23552 ng·h/mL
AUC (0-infinity, from 144) (1 × 20 mg non-coated fed): 26424 ng·h/mL
AUC(0-24) (1 × 20 mg non-coated fed): 8334 ng·h/mL
AUC(0-144) (1 × 20 mg non-coated fed): 24282 ng·h/mL
AUMC (0-24) (1 × 20 mg non-coated fed): 111005 hours^2*ng/ml
AUMC (0-infinity) (1 × 20 mg non-coated fed): 1555946 hours^2*ng/ml
Cl/F (0-24) (1 × 20 mg non-coated fed): 1.197 L/h
Cl/F (from 144) (1 × 20 mg non-coated fed): 0.852 L/h
Cmax (1 × 20 mg non-coated fed): 546.4 ng/mL
Ke (from 24) (1 × 20 mg non-coated fed): 0.0332 h⁻¹
Ke (from 144) (1 × 20 mg non-coated fed): 0.0193 h⁻¹
MTT (0-24) (1 × 20 mg non-coated fed): 13.0 h
MTT (from 144) (1 × 20 mg non-coated fed): 57.2 h
T1/2 (from 24) (1 × 20 mg non-coated fed): 25.2 h
T1/2 (from 144) (1 × 20 mg non-coated fed): 36.4 h
Tmax (1 × 20 mg non-coated fed): 8.17 h
AUC (0-infinity, from 24) (2 × 10 mg coated fasting): 10388 ng·h/mL
AUC (0-infinity, from 144) (2 × 10 mg coated fasting): 24950 ng·h/mL
AUC(0-24) (2 × 10 mg coated fasting): 6427 ng·h/mL
AUC(0-144) (2 × 10 mg coated fasting): 20269 ng·h/mL
AUMC (0-24) (2 × 10 mg coated fasting): 83132 hours^2*ng/ml
AUMC (0-infinity) (2 × 10 mg coated fasting): 2246560 hours^2*ng/ml
Cl/F (0-24) (2 × 10 mg coated fasting): 3.318 L/h
Cl/F (from 144) (2 × 10 mg coated fasting): 1.815 L/h
Cmax (2 × 10 mg coated fasting): 424.6 ng/mL
Ke (from 24) (2 × 10 mg coated fasting): 0.0493 h⁻¹
Ke (from 144) (2 × 10 mg coated fasting): 0.0174 h⁻¹
MTT (0-24) (2 × 10 mg coated fasting): 12.9 h
MTT (from 144) (2 × 10 mg coated fasting): 69.2 h
T1/2 (from 24) (2 × 10 mg coated fasting): 14.9 h
T1/2 (from 144) (2 × 10 mg coated fasting): 48.0 h
Tmax (2 × 10 mg coated fasting): 9.67 h
AUC (0-infinity, from 24) (2 × 10 mg coated fed): 15799 ng·h/mL
AUC (0-infinity, from 144) (2 × 10 mg coated fed): 24463 ng·h/mL
AUC(0-24) (2 × 10 mg coated fed): 5008 ng·h/mL
AUC(0-144) (2 × 10 mg coated fed): 21417 ng·h/mL
AUMC (0-24) (2 × 10 mg coated fed): 74749 hours^2*ng/ml
AUMC (0-infinity) (2 × 10 mg coated fed): 1794144 hours^2*ng/ml
Cl/F (0-24) (2 × 10 mg coated fed): 2.067 L/h
Cl/F (from 144) (2 × 10 mg coated fed): 1.239 L/h
Cmax (2 × 10 mg coated fed): 422.3 ng/mL
Ke (from 24) (2 × 10 mg coated fed): 0.0427 h⁻¹
Ke (from 144) (2 × 10 mg coated fed): 0.0196 h⁻¹
MTT (0-24) (2 × 10 mg coated fed): 15.1 h
MTT (from 144) (2 × 10 mg coated fed): 64.6 h
T1/2 (from 24) (2 × 10 mg coated fed): 22.8 h
T1/2 (from 144) (2 × 10 mg coated fed): 37.7 h
Tmax (2 × 10 mg coated fed): 14.33 h
AUC (0-infinity, from 24) (2 × 10 mg non-coated fasting): 14643 ng·h/mL
AUC (0-infinity, from 144) (2 × 10 mg non-coated fasting): 25734 ng·h/mL
AUC(0-24) (2 × 10 mg non-coated fasting): 10036 ng·h/mL
AUC(0-144) (2 × 10 mg non-coated fasting): 24028 ng·h/mL
AUMC (0-24) (2 × 10 mg non-coated fasting): 117485 hours^2*ng/ml
AUMC (0-infinity) (2 × 10 mg non-coated fasting): 1319516 hours^2*ng/ml
Cl/F (0-24) (2 × 10 mg non-coated fasting): 1.444 L/h
Cl/F (from 144) (2 × 10 mg non-coated fasting): 0.810 L/h
Cmax (2 × 10 mg non-coated fasting): 724.4 ng/mL
Ke (from 24) (2 × 10 mg non-coated fasting): 0.0606 h⁻¹
Ke (from 144) (2 × 10 mg non-coated fasting): 0.0195 h⁻¹
MTT (0-24) (2 × 10 mg non-coated fasting): 11.7 h
MTT (from 144) (2 × 10 mg non-coated fasting): 51.5 h
T1/2 (from 24) (2 × 10 mg non-coated fasting): 11.7 h
T1/2 (from 144) (2 × 10 mg non-coated fasting): 36.3 h
Tmax (2 × 10 mg non-coated fasting): 8.67 h
AUC (0-infinity, from 24) (2 × 10 mg non-coated fed): 15305 ng·h/mL
AUC (0-infinity, from 144) (2 × 10 mg non-coated fed): 25822 ng·h/mL
AUC(0-24) (2 × 10 mg non-coated fed): 8708 ng·h/mL
AUC(0-144) (2 × 10 mg non-coated fed): 24104 ng·h/mL
AUMC (0-24) (2 × 10 mg non-coated fed): 109878 hours^2*ng/ml
AUMC (0-infinity) (2 × 10 mg non-coated fed): 1409500 hours^2*ng/ml
Cl/F (0-24) (2 × 10 mg non-coated fed): 1.394 L/h
Cl/F (from 144) (2 × 10 mg non-coated fed): 0.802 L/h
Cmax (2 × 10 mg non-coated fed): 652.1 ng/mL
Ke (from 24) (2 × 10 mg non-coated fed): 0.0528 h⁻¹
Ke (from 144) (2 × 10 mg non-coated fed): 0.0195 h⁻¹
MTT (0-24) (2 × 10 mg non-coated fed): 12.7 h
MTT (from 144) (2 × 10 mg non-coated fed): 54.3 h
T1/2 (from 24) (2 × 10 mg non-coated fed): 15.4 h
T1/2 (from 144) (2 × 10 mg non-coated fed): 36.1 h
Tmax (2 × 10 mg non-coated fed): 8.50 h
effect of enteric coatings on Tmax (enteric coated vs non-coated): increased
Structure (SMILES): CCCCCCCCCCCCCCCCOCC(COP(=O)([O-])OCC[N+](C)(C)C)OCCCCC(=O)O (stereo not shown) [VB-201, 1-hexadecyl-2-(4′-carboxybutyl)-glycerol-3-phosphocholine]
